Laboratory results as given in patent publication US20260306640A1, “TECHNOLOGIES TARGETING CELL STATES” (Auron Therapeutics, Inc., priority 2023, published 2026).
Read-outs that look alike come from different tables or passages of the source.

Key:
Assay type in all cases: cell-based
[1] = tested on: epithelial GSEA; assay: Epithelial GSEA in LASCPC-01 cells; details: LASCPC-01 cells as compared to DMSO; FIG. 3 (C)
Procedure: (§1) FIG. 3. Provided compounds can provide various activities. (A): Provided technologies can reduce KAT2A and KAT2B levels and histone acetylation levels. […] Cell viability (Cell Titer Glo) data relative to DMSO control after 7 days of treatment with compound 22 are presented as examples to confirm inhibition. GI50=5 nM. (C): Provided technologies can modulate cell states and induce differentiation. […] (D): Provided technologies can reduce KAT2A and KAT2B levels and histone acetylation levels including in neuroendocrine prostate cancer primary patient organoid. […] Concentrations are nM. […] Cell viability data relative to DMSO control after 21 days of treatment with compound 22 are presented as examples to confirm inhibition. GI50=3 nM. (F): Provided technologies can modulate cell states and induce differentiation.

[2] = tested on: NCI-H1876 cells; assay: Cell growth inhibition, SCLC cell line NCI-H1876 (cell count, day 10); details: 240 h; NCI-H1876, day 10, cell count
Source text: (§2) Among other things, provided technologies are useful for treating various diseases, disorders, or conditions. For example, in some embodiments, provided technologies are useful for treating cancer as confirmed in the present Example. […] In some embodiments, provided technologies can inhibit cell proliferation. In some embodiments, the present disclosure provides technologies for assessing various technologies, e.g., compounds, compositions, or methods. Among other things, the present Example provides technologies, e.g., cell growth inhibition assay, for assessing various technologies. […] In some embodiments, the following cell growth inhibition methods are utilized to assess provided technologies.
SCLC: SCLC cell lines NCI-H1048 and NCI-H1876 were cultured in DMEM F12 media with 5% FBS, 1% Penicillin/Streptomycin and HITES supplement (Hydrocortisone, Insulin, Transferrin, Estradiol and Sodium Selenite). NCI-H1048 cells were plated at 10,000 cells/well of a 24-well plate and NCI-H1876 cells were plated at 20,000 cells/well of a 96-well plate. Compound and media were replenished every two days out to day 11 and 10 respectively. Cells were then trypsinized and counted using either hemocytometer or an automated Countess cell counter.

[3] = tested on: LASCPC-01 cells; assay: Cell growth inhibition, neuroendocrine prostate cancer line LASCPC-01 (Cell Titer Glo, day 7)
Source text: as §2
Neuroendocrine prostate cancer: Neuroendocrine prostate cancer line LASCPC-01 cells were cultured in DMEM F12 media with 5% FBS, 1% Penicillin/Streptomycin and HITES supplement (Hydrocortisone, Insulin, Transferrin, Estradiol and Sodium Selenite). Cells were plated at 1,425 cells/well of a 96 well plate. Compound and media were replenished every two days and at day 7 cell viability was assayed using Cell Titer Glo following manufacturer's instructions.
In some assessments, for cell growth inhibition, cells, e.g., MOLM13, NCI-H1048, and LASCPC-01 cells, were counted using a hemocytometer or automated cell counting in triplicates. In some assessments, proliferation in NEPC organoids as measured with Cell Titer Glo reagent (Promega). Growth inhibition was determined relative to vehicle control.

[4] = target: T1, KAT2B (Homo sapiens, UniProt Q92831); assay: Western blot of KAT2B level in acute myeloid leukemia MOLM-13 cells, 48 h; set-up: degrader, Western blot; details: FIG. 2 (A)
T1 sequence (Q92831 whole entry): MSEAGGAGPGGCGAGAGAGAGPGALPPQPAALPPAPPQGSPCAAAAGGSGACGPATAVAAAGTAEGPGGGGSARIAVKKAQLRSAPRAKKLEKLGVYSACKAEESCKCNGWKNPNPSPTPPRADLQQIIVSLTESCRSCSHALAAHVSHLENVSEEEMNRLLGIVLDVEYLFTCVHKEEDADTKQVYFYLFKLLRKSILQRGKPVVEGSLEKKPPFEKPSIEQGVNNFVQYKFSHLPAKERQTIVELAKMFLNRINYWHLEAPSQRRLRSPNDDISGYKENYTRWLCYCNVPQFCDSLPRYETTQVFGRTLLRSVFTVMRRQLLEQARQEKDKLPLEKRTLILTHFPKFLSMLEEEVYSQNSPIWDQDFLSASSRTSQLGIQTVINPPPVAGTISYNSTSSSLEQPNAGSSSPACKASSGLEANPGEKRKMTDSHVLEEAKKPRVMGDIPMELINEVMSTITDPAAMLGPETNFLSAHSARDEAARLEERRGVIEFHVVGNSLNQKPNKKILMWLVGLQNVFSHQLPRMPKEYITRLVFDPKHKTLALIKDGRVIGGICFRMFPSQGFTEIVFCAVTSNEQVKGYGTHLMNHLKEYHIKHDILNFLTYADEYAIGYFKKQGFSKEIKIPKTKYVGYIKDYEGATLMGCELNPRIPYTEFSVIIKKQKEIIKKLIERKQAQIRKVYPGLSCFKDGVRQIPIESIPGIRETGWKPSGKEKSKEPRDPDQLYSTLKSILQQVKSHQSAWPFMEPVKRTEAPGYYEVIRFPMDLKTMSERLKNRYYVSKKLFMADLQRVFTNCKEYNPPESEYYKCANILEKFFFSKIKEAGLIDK
Procedure: FIG. 2. Provided compounds can provide various activities. (A): Provided technologies can reduce KAT2A and KAT2B levels and histone acetylation levels. […] Cell count data after 8 days of treatment with compound 22 relative to DMSO control are presented as examples to confirm inhibition. […] (C): Provided technologies can modulate cell states and induce differentiation. […] EC50=0.3 nM.

[5] = target: T2, KAT2A (Homo sapiens, UniProt Q92830); assay: Western blot of KAT2A level in neuroendocrine prostate cancer LASCPC-01 cells, 24 hours; set-up: degrader, Western blot; details: FIG. 3 (A)
T2 sequence (Q92830 whole entry): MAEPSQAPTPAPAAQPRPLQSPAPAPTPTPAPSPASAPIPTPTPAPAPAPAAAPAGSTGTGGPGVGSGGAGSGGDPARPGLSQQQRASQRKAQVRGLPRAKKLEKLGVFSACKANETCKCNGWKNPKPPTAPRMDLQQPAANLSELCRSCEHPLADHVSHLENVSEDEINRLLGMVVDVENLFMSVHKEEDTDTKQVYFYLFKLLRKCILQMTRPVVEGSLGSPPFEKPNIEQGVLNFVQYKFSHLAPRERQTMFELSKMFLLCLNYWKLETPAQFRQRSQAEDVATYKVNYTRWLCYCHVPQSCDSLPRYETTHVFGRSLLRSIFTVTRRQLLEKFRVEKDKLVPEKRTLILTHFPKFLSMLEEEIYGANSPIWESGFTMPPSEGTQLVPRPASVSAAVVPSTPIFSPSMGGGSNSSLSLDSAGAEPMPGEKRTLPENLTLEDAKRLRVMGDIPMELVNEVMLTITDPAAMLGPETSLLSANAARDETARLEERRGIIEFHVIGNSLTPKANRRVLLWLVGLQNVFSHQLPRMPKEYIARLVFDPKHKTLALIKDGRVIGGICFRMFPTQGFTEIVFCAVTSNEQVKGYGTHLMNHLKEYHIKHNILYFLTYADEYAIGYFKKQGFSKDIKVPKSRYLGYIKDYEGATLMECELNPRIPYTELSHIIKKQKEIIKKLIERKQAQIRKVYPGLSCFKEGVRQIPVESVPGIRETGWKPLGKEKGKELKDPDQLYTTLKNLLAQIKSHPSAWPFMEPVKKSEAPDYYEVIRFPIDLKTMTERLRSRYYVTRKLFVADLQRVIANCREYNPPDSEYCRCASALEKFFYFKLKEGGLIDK
Procedure: as §1

[6] = target: T2, KAT2A; assay: Western blot of KAT2A level in NEPC primary patient organoid, 72 hours; set-up: degrader, Western blot; details: FIG. 3 (D)
Procedure: as §1

[7] = target: T1, KAT2B; assay: KAT2B reduction in LASCPC-01 cells; set-up: degrader, Western blot
Procedure: MOLM-13 cells or NCI-H1048 cells were washed with PBS, then lysed with RIPA buffer containing 1×protease and phosphatase inhibitors (SantaCruz Biotechnologies Cat #sc-24948A). Protein was isolated by centrifugation at 12,000×g for 10 minutes at 4° C. and supernatant was collected. Protein was quantified via Bradford assay. Samples were diluted to 4 μg lysate in 16 μL RIPA buffer and then 4 μL of Jess Sample Buffer. Samples were heated at 95° C. for 5 minutes. Samples were loaded onto 12-230 kDa Jess™ Separation Module, 8×25 capillary cartridges (SM-W004, Biotechne). Antibodies loaded were: Primary antibody for KAT2A (GCN5L2 (C26A10) Rabbit mAb (3305, CST)) and for KAT2B (PCAF (C14G9)) Rabbit mAb (3378, CST) at 1:1000 and Anti-Rabbit Detection Module for Jess™ (Cat No #DM-001, Biotechne). Signal was detected by chemiluminescence.
In some embodiments, assessment was performed in LASCPC-01 cells, and reduction of KAT2A and KAT2B levels, including in some cases selectivity for one over the other, was confirmed. In some embodiments, DC50 and/or DC90 were assessed. In some embodiments, DC50 for various compounds was about or no more than about 1 nM. In some embodiments, DC90 for various compounds was about or no more than about 1 nM. In some embodiments, selectivity for the same polypeptide by a compound was observed across multiple types of cells (e.g., when assessed using DC50 and/or DC90). In some embodiments, certain compounds can provide improved properties and/or activities (e.g., potency). Data from certain assessments for certain compounds are presented below as examples (NT: not tested). It has been confirmed that various compounds described herein, including multiple compounds in Table 1, can be deemed to provide further improved properties and/or activities compared to the compound(s) in the table below for certain contexts, aspects, and/or uses.

GI50 [2]: 1 nM | GI50 ([3]; 168 h, LASCPC-01, day 7, Cell Titer Glo, read-out: LASCPC GI50): 5.3 nM | GI50 ([3]; LASCPC-01, comparison table with Ref-1, read-out: Growth GI50): 5 nM | reduction of KAT2B level [4]: confirm such reduction | reduction of KAT2A level [5]: confirm such reduction | reduction of KAT2A level [6]: confirmed such reductions | DC50 ([7]; LASCPC-01, KAT2B): 0.16 nM | EC90 ([7]; LASCPC-01, KAT2B, read-out: DC90 (the source's name)): 0.42 nM | KAT2B levels ([7]; LASCPC-01 cells, FIG. 3): potently reduce KAT2A and KAT2B levels
SMILES: CN1C[C@H](Nc2cnn(C)c(=O)c2Br)C[C@H](c2ccc(C(=O)N3CCC(CN4CCN(c5ccc6c(c5)CN(C5CCC(=O)NC5=O)C6=O)CC4)CC3)cc2)C1 (stereo partly drawn) [Compound 22, 3-(5-(4-((1-(4-((3R,5R)-5-((5-bromo-1-methyl-6-oxo-1,6-dihydropyridazin-4-yl)amino)-1-methylpiperidin-3-yl)benzoyl)piperidin-4-yl)methyl)piperazin-1-yl)-1-oxoisoindolin-2-yl)piperidine-2,6-dione]
epithelial GSEA [1]: significant upregulation | cell growth in vitro ([3]; LASCPC-01 cells, FIG. 3): inhibit cell growth in vitro and in vivo
